{"source": "patent US20250025500A1", "about": "“PHOSPHATASE INHIBITORS AS NK CELLS MODULATORS FOR THE TREATMENT OF CANCER” (Kanyr Pharma Inc., priority 2021, published 2025)", "system": "NK-92 cells", "assay": "Surface receptor expression on NK-92 (flow cytometry)", "type": "cell-based, Human", "data": [{"substance": "7-bromo-6-phosphono(difluoro-methyl)-3-napthalenonitrile [L598]", "values": [{"measurement": "IL-2Rα (CD25) expression", "setting": "steady state, 10 μM", "result": "upregulated"}, {"measurement": "IL-2Rβ (CD122) expression", "setting": "steady state, 10 μM", "result": "remained stable"}, {"measurement": "CD69 and activating receptors NKp30, NKp46, NKG2D on NK-92", "setting": "with or without K-562 stimulation", "result": "upregulation"}]}]}
